Data set [1] deals with Lymphocytic leukemia P-388 tumor cells. Briefly: Therapeutic effect upon lymphocytic leukemia P-388 tumor. Particulars: 24 hours after transplantation. The format is in vivo, CDF1 male mice. The procedure:
Lymphocytic leukemia P-388 tumor cells (1×10^6 cells) were transplanted intraperitoneally into each of five CDF1 male mice weighing about 22 grams. Twenty-four hours after transplantation, 0.2 ml of a PBS (phosphate-buffered saline) solution of DC 113 was intraperitoneally administered to each mouse. For comparison, 0.2 ml of a PBS solution of mitomycin C was intraperitoneally administered to each of five mice 24 hours after transplantation. The life-prolonging effect of DC 113 thus established is shown below in Table 2 in terms of the T/C ratio [T mean number of days of survival after transplantation in the DC 113 group; C=mean number of days of survival after transplantation in the control group (intraperitoneally given 0.2 ml of PBS)].

Data set [2] is described as follows: Stability compared with DC-88A. Particulars: relative to known compound DC-88A. The format is physicochemical.
A short description of the next data set: Solubility. The format is physicochemical.
A further data set in a line: Acute toxicity (LD50). Particulars: mouse, in vivo; intravenous, mice.
In data set [3] the test system is Bacillus subtilis No. 10707. Briefly: Antimicrobial activity, MIC by agar dilution method (pH 7.0). The settings on record: read-out: Minimum inhibitory concentration (MIC). In kind it is cell-based. As to the method: (§1) Minimum inhibitory concentrations (MIC) against various bacteria were determined by the agar dilution method (pH 7.0).
A general note: In agar dilution, organisms are placed on agar that contains the substance at set levels.

For data set [4], the system named is Staphylococcus aureus ATCC 6538P. The description is as above. The format is cell-based. The settings on record: ATCC6538P, read-out: Minimum inhibitory concentration (MIC). As to the method: as §1
Data set [5] relates to Salmonella typhosa ATCC 9992. The data set is described as above. The format is cell-based. Particulars: Salmonella enterica, read-out: Minimum inhibitory concentration (MIC). The procedure: as §1
In a further data set the test system is Escherichia coli ATCC 26. The data set is described as above. Particulars: ATCC26, read-out: Minimum inhibitory concentration (MIC). The format is cell-based. As to the method:
as §1

For data set [6], the system named is Klebsiella pneumoniae ATCC 10031. The description is as above. In kind it is cell-based. The settings on record: ATCC10031, read-out: Minimum inhibitory concentration (MIC). The procedure:
as §1

≈ marks a conversion by molar mass, not a printed value.

Turning to `CO[C@@]12[C@H](COC(N)=O)C3=C(C(=O)C(C)=C(N)C3=O)N1C[C@@H]1N[C@@H]12` [Mitomycin C, mitomycin C, reference compound], in [1] (6 mg/kg i.p.), the “Life-prolonging effect (T/C)” value came out at 151.

Consider `COC(=O)c1cc2c([nH]1)C(=O)C=C1N(C(=O)c3cc4cc(OC)c(OC)c(OC)c4[nH]3)CC3CC123` (stereo not drawn) [DC 113], for which, in data set [2], the Stability result is reported as “more stable than the known compound DC-88A”. In addition, the Solubility entry is “Soluble” in the data set “Solubility” (in chloroform, DMSO, methanol, ethyl acetate and acetone); “sparingly soluble” in the data set “Solubility” (in water and n-hexane). Besides, the median lethal dose (LD50) (as a rule, the dose expected to kill half of the subjects tested) in “Acute toxicity (LD50)” was 0.14 mg/kg. Besides, the “Life-prolonging effect (T/C)” value in [1] (0.0063 mg/kg i.p.) came to 130; in data set [1] (0.013 mg/kg i.p.) it was 110. Further, the MIC in data set [3] stood at 0.00065 µg/mL (≈ 0.00136 µM); in data set [4], 0.0013 µg/mL (≈ 0.00272 µM); in [5], 0.1 µg/mL (≈ 0.209 µM); in the data set with Escherichia coli ATCC 26 it was 0.064 µg/mL (≈ 0.134 µM); in data set [6], 0.021 µg/mL (≈ 0.044 µM).
